We go through 2 substances from US20100255580A1, “Differentiation of Human Embryonic Stem Cells” (LIFESCCAN, INC., priority 2007, published 2010).

One assay deals with H9 embryonic stem cells. The experiment in a line: Immunofluorescence staining of DE markers +/- Wnt-3a (Example 27). Format: cell-based, human. The settings on record: 20 ng/ml Wnt-3a; Day 5 DE cultures. The text has this:
Day 5 DE cultures of H9 cells were stained according to Example 10 for SOX-17, HNF-3B, GATA-4, N-cadherin, and E-cadherin. All nuclei were counter stained with DAPI.

In assay [1] the test system is human embryonic stem cell line H7. The assay is described as follows: FACS analysis of protein expression following activin A treatment, H7. Format: cell-based. Conditions: AA 100 ng/ml. The source says:
(§1) The level of expression of definitive endoderm markers was examined by PCR (FIG. 1), FACS (results summarized in Table II), and immunohistochemistry (FIG. 2).
(§2) CXCR4 positive cells were also highly positive for C-kit, EPCAM, CD99, and negative for CD9. The expression pattern for these markers was consistent among all three hES cell lines examined (Table IIB for H7 and Table IIC for H1). […] In parallel, almost 100% of the differentiated cells were […] (FIG. 2).
(§3) Adhered cells were removed from culture plates by five-minute incubation with TrypLE™ Express solution (Invitrogen, CA). Released cells were resuspended in human embryonic stem cell culture medium and recovered by centrifugation, followed by washing and resuspending the cells in a staining buffer consisting of 2% BSA, 0.05% sodium azide in PBS (Sigma, MO). As appropriate, the cells were Fc-receptor blocked for 15 minutes using a 0.1% γ-globulin (Sigma) solution. […] Controls included appropriate isotype matched antibodies, unstained cells, and cells stained only with secondary conjugated antibody. All incubations with antibodies were performed for 30 mins at 4° C. after which the cells were washed with the staining buffer. Samples that were stained with unconjugated primary antibodies were incubated for an additional 30 mins at 4° C. with secondary conjugated PE or -APC labeled antibodies. See Table I for a list of secondary antibodies used. Washed cells were pelleted and resuspended in the staining buffer, and the cell surface molecules were identified using a FACS Array (BD Biosciences) instrument, collecting at least 10,000 events.
Background: In flow cytometry, cells or beads pass a laser one at a time.

For assay [2], the system named is human embryonic stem cell line H9. The assay is described as follows: Immunocytochemistry of endoderm markers, H9. Conditions: activin A for five days. Format: cell-based.
Text: as §1
Cells were harvested at the time points indicated in FIG. 3 and assayed by PCR for the expression of genes shown (FIGS. 3, 4 and 5).

In assay [3] the test system is human embryonic stem cell line H1. The assay is described as follows: FACS analysis of protein expression following activin A treatment, H1. Format: cell-based. Conditions: 5-day AA treatment.
Text: as §1, §2, §3

Take Wnt-3a: in the assay with H9 embryonic stem cells, the “expression of N-cadherin” value is given as “enhanced expression”; the expression of e-cadherin result was “significant loss”; the “nuclei stained positive for SOX-17, HNF-3beta. and GATA-4” value is “significantly larger number”.

As to “Activin A: a member of the TGFβ superfamily; R&D Systems; Group 2 = Activin A (100 ng/ml)”, in assay [1] (1-day), the “CXCR4+” value worked out at 6%, the “CXCR4+ C-Kit+” value was 2.97%, the “CXCR4+ CD9+” value came out at 8.13% and the “CXCR4+ EPCAM+” value is recorded as 14.58%. Further, in assay [1] (3-day), the “CXCR4+” value was 38%, the “CXCR4+ C-Kit+” value was 31.56%, the “CXCR4+ CD9+” value is recorded as 24.11% and the “CXCR4+ EPCAM+” value is recorded as 36.67%. In assay [1] (5-day), the “CXCR4+” value was 65.5%, the “CXCR4+ C-Kit+” value came to 55.21%, the “CXCR4+ CD9+” value came to 2.1% and the “CXCR4+ EPCAM+” value was determined as 54.5%. Also, in assay [2], the “cells positive for Sox17 and HNF-3beta (immunocytochemistry)” value is recorded as 30-40%; the “differentiated cells still Oct4 positive (immunocytochemistry)” value is approximately 100%. In assay [3], the “CXCR4+” value was determined as 92.78%, the “CXCR4+/C-kit+” value is on record as 92.90%, the “CXCR4+/CD9+” value worked out at 7.03% and the “CXCR4+/CD99+” value turned out to be 88.78%. Further, the “CXCR4+/EPCAM” value in assay [3] is given as 87.99%.
